Drawing on patent US20200392150A1, “Diaryl-B-Lactam Compound and Preparation Method and Pharmaceutical Use Thereof” (Fudan University, priority 2016, published 2020), this text covers melting point and IC50 for nine molecules.

The term melting point denotes the temperature, or range, at which the solid turns liquid. One may read the IC50 as the concentration that inhibits the measured activity by half.

Data set [1] has as its system SKOV3. In words: In vitro cell growth inhibition assay (MTT). The class given is cell-based, human. The settings on record: SK-OV-3; SKOV-3 human ovarian cancer cell line, 48 h, MTT; read-out: IC50 SKOV3. The method, boiled down: (§1)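 Following overnight adherence of 5000 cells per well, compounds or 0.2% DMSO were applied for 48 h. Medium was then swapped for 0.5 mg/mL MTT medium (4 h, 37° C), crystals dissolved in DMSO, and plates read at 540 nm.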

The subject of data set [2] is Hela. Description: In vitro cell growth inhibition assay (MTT). The data set is classed as cell-based, human. As to conditions: Hela human cervical cancer cell line, 48 h, MTT; read-out: IC50 Hela. The method, boiled down: as §1
Data set [3] concerns A2780. Description: In vitro cell growth inhibition assay (MTT). The class given is cell-based, human. The settings on record: A2780 human ovarian cancer cell line, 48 h, MTT; read-out: IC50 A2780. The method, boiled down:
as §1

Data set [4] concerns MDA-MB-231. In words: In vitro cell growth inhibition assay (MTT). The class given is cell-based, human. The settings on record: MDA-MB-231 human breast cancer cell line, 48 h, MTT; read-out: IC50 MDA-MB-231. The gist of the method: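 IC50 values come from growth inhibition rates calculated from MTT absorbance at 540 nm. Compound exposure lasted 48 h on cells plated at 5000 per well.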

`C=C1C(=O)N(c2cc(OC)c(OC)c(OC)c2)[C@H]1c1ccc(OC)c(C(=O)OC)c1` [Compound 40, (5)-methyl 2-methoxy-5-(3-methylene-4-oxo-1-(3,4,5-trimethoxyphenyl)azetidin-2-yl)benzoate] had a melting point of 112 to 113 °C. Moreover, the IC50 in data set [1] was determined as 539 nM. Also, in data set [2], the 50% inhibitory concentration (IC50) stood at 942 nM. Moreover, the IC50 in data set [3] was determined as 281 nM. Besides, the IC50 in data set [4] is 479 nM.

Molecule `C=CC(=O)Nc1cc([C@H]2C(=C)C(=O)N2c2cc(OC)c(OC)c(OC)c2)ccc1OC` [Compound 42, (S)—N-(2-methoxy-5-(3-methylene-4-oxo-1-(3,4,5-trimethoxyphenyl)azetidin-2-yl)phenyl)acrylamide] showed a melting point of 143 to 144 °C. In data set [1], the 50% inhibitory concentration (IC50) is 63 nM. For the same molecule, in data set [2], the IC50 came to 125 nM. Moreover, in data set [3], the half-maximal inhibitory concentration (IC50) was 65 nM. Besides, in data set [4], the half-maximal inhibitory concentration (IC50) amounted to 34 nM.

`C=C1C(=O)N(c2cc(OC)c(OC)c(OC)c2)[C@H]1c1ccc(OC)c(NC(=O)c2ccc([N+](=O)[O-])cc2)c1` [Compound 43, (S)—N-(2-methoxy-5-(3-methylene-4-oxo-1-(3,4,5-trimethoxyphenyl)azetidin-2-yl)phenyl)-4-nitrobenzamide] gave a melting point of 234 to 235 °C. Also, the IC50 in data set [1] was determined as 1420 nM. Besides, the 50% inhibitory concentration (IC50) in data set [2] was found to be 1580 nM. The IC50 in data set [3] was 931 nM. Also, in data set [4], the IC50 worked out at 2000 nM.

For `C=C1C(=O)N(c2cc(OC)c(OC)c(OC)c2)[C@H]1c1ccc(OC)c(NS(N)(=O)=O)c1` [Compound 44, (S)—N-(2-methoxy-5-(3-methylene-4-oxo-1-(3,4,5-trimethoxyphenyl)azetidin-2-yl)phenyl)sulfamoylamide], the melting point lay in the range of 101 to 102 °C. The IC50 in data set [1] is 833 nM. For the same molecule, the half-maximal inhibitory concentration (IC50) in data set [2] is 456 nM. The concentration for half-maximal inhibition (IC50) in data set [3] turned out to be 354 nM. Also, the IC50 in data set [4] is 841 nM.

Turning to `C=C1C(=O)N(c2cc(OC)c(OC)c(OC)c2)[C@H]1c1ccc(OC)c(NC(=O)C2CC2)c1` [Compound 45, (S)—N-(2-methoxy-5-(3-methylene-4-oxo-1-(3,4,5-trimethoxyphenyl)azetidin-2-yl)phenyl)cyclopropanecarboxamide], the melting point was in the range of 181 to 182 °C. Moreover, the half-inhibitory concentration (IC50) in data set [1] came to 224 nM. Further, the IC50 in data set [2] was found to be 321 nM. In addition, in data set [3], the 50% inhibitory concentration (IC50) was determined as 148 nM. For the same molecule, in data set [4], the concentration for half-maximal inhibition (IC50) is 197 nM.

As to `C=C1C(=O)N(c2cc(OC)c(OC)c(OC)c2)[C@H]1c1ccc(OC)c(OC(C)=O)c1` [Compound 46, (S)-2-methoxy-5-(3-methylene-4-oxo-1-(3,4,5-trimethoxyphenyl)azetidin-2-yl)phenyl acetate], the melting point lay within 122 to 123 °C. The IC50 in data set [1] stood at 104 nM. Also, in data set [2], the IC50 stood at 116 nM. For the same molecule, in data set [3], the 50% inhibitory concentration (IC50) was 81 nM. For the same molecule, the IC50 in data set [4] came out at 133 nM.

In the case of `C=C1C(=O)N(c2cc(OC)c(OC)c(OC)c2)[C@H]1c1ccc(OC)c(OCc2ccccc2)c1` [Compound 47, (S)-4-(3-(benzyloxy)-4-methoxyphenyl)-3-methylene-1-(3,4,5-trimethoxyphenyl)azetidin-2-one], the melting point lay in the range of 133 to 134 °C. For the same molecule, the concentration for half-maximal inhibition (IC50) in data set [1] was over 20000 nM. For the same molecule, the 50% inhibitory concentration (IC50) in data set [2] was over 20000 nM. The IC50 in data set [3] was over 20000 nM. Also, the 50% inhibitory concentration (IC50) in data set [4] was over 20000 nM.

Take `C=C1C(=O)N(c2ccc(OC)c(OC)c2)[C@H]1c1ccc(OC)c(O)c1` [Compound 48, (S)-1-(3,4-dimethoxyphenyl)-4-(3-hydroxy-4-methoxyphenyl)-3-methyleneazetidin-2-one]: the melting point lay in the range of 74 to 75 °C. Besides, the 50% inhibitory concentration (IC50) in data set [1] was 14800 nM. In addition, in data set [2], the IC50 is over 20000 nM. Also, in data set [3], the IC50 stood at 4570 nM. The concentration for half-maximal inhibition (IC50) in data set [4] is 6100 nM.

With `C=C1C(=O)N(c2cccc(OC)c2)[C@H]1c1ccc(OC)c(O)c1` [Compound 51, (S)-1-(3-methoxyphenyl)-4-(3-hydroxy-4-methoxyphenyl)-3-methyleneazetidin-2-one], the melting point was 104 to 105 °C. In addition, in data set [1], the IC50 was 1390 nM. In data set [2], the IC50 was found to be 2170 nM. In data set [3], the IC50 was 677 nM. Moreover, in data set [4], the half-inhibitory concentration (IC50) amounted to 1370 nM.
